We go through nine molecules from publication PMC10745882, “Investigation of Drug-Interaction Potential for Arthritis Dietary Supplements: Chondroitin Sulfate, Glucosamine, and Methylsulfonylmethane” (Molecules, 2023).

For series [1], the system named is CYPs. The following applies: drugs used for OA; ref as in Refs of Table 4, 17-36; cited from earlier work.
For a further series, the target named is T1, CYP3A4(T) (Homo sapiens, UniProt P08684).
T1 construct: Pooled human liver microsomes were purchased from BD Gentest; tissue BD Gentest; host or cells: pooled human liver microsomes
T1 sequence (P08684 whole entry): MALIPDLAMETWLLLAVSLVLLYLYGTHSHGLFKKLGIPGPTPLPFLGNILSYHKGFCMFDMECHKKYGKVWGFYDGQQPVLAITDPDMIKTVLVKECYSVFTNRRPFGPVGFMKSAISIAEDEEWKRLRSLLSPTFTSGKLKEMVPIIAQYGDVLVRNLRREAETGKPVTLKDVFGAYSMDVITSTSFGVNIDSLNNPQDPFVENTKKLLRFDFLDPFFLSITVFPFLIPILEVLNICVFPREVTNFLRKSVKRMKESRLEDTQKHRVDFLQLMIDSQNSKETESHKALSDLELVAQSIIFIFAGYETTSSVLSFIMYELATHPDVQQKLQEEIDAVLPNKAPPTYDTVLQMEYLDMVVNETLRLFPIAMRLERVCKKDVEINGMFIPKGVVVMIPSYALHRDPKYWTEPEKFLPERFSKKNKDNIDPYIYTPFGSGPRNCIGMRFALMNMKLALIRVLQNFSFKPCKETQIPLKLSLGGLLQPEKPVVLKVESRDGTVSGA
Nature of the series: CYP inhibition assay in human liver microsomes (LC-MS/MS cocktail), testosterone to 6-β-OH-Testosterone. The class given is in vitro ADME. As for the experimental part: (§1) For the experimental method, the reference method was used. Briefly, incubation mixtures were composed of 0.5 mg/mL human liver microsomes; varying concentrations of CS in DW (0.1, 0.3, 1, 3, 10, 30, 100, and 200 µM) or MSM in DW (0.1, 0.3, 1, 3, 10, 30, 100, 300, and 1000 µM) or GCS in DMSO (0.1, 0.3, 1, 3, 10, 30, 100, 300, and 1000 µM); a substrate mixture in DMSO (40 µM phenacetin for CYP1A2; 2.5 µM coumarin for CYP2A6; 80 µM bupropion for CYP2B6; 10 µM diclofenac for CYP2C9; 80 µM [±]-mephenytoin for CYP2C19; 5 µM dextromethorphan for CYP2D6; 2.5 µM midazolam and 30 µM testosterone for CYP3A4); and an NADPH generating system (NGS; 0.1 M glucose-6-phosphate, 10 mg/mL β-NADP^+, and 1 U/mL glucose-6-phosphate dehydrogenase) in a total volume of 200 µL potassium phosphate buffer (0.1 M, pH 7.4). The reaction mixture, excluding NGS, underwent pre-incubation at 37 °C for 5 min, followed by further incubation with NGS for 30 min in a water bath. Well-established selective CYP inhibitors were employed as positive controls (40 µM ketoconazole for CYP3A4, 50 µM furafyllin for CYP1A2, 10 µM quinidine for CYP2D6, 125 µM ticlopidine for CYP2C19 and CYP2B6, 10 µM 8-methoxsalen for CYP2A6, and 10 µM sulfaphenazole for CYP2C9). Post incubation, the reaction was halted by adding 50 µL ice-cold 1% formic acid acetonitrile. After centrifugation at 13,200 rpm for 5 min, the supernatant was collected from the sample and subjected to analysis via an LC-MS/MS system. All experiments were performed in triplicate.
For the experimental method, the reference method was used. The LC-MS/MS system utilized in this study consisted of an Agilent 1260 binary pump HPLC system coupled with the Agilent 6460 Triple Quadrupole mass spectrometer (Agilent Technologies, Santa Clara, CA, USA), featuring an electrospray ionization source. Chromatographic separation was achieved using a Fortis C8 column (2.1 × 100 mm, 5.0 µm; Fortis Technologies Ltd., Neston, UK). The HPLC mobile phases comprised (A) 0.1% formic acid and (B) 0.1% formic acid in 90% acetonitrile. A gradient elution method was employed with an initial solvent B concentration of 15% and a flow rate of 0.25 mL/min. […] The total run time was 11.0 min, and the injection volume was 5 µL. Mass detection was conducted in the positive ion mode using multiple reaction monitoring (MRM). Specific MRM transitions for each analyte are detailed in Table S4.
Background: Liver microsomes are vesicles of endoplasmic reticulum, rich in cytochrome P450 enzymes.

For series [2], the system named is CYPs. Also on record: method as in PMID 33096940. The following applies: in vivo mice, after the administration of MSM; cited from earlier work.
Details of series [3]: method as in PMID 16942821, PMID 37489348, PMID 31331587. The following applies: typical doses as monotherapy; cited from earlier work.
In another series the target is T2, CYP3A4(M) (Homo sapiens, UniProt P08684).
T2 construct: Pooled human liver microsomes were purchased from BD Gentest; tissue BD Gentest; host or cells: pooled human liver microsomes
T2 sequence (P08684 whole entry): as above
Nature of the series: CYP inhibition assay in human liver microsomes (LC-MS/MS cocktail), midazolam to 1-OH-midazolam. In kind it is in vitro ADME. As to the method: For the experimental method, the reference method was used. […] The reaction mixture, excluding NGS, underwent pre-incubation at 37 °C for 5 min, followed by further incubation with NGS for 30 min in a water bath. […] Post incubation, the reaction was halted by adding 50 µL ice-cold 1% formic acid acetonitrile. After centrifugation at 13,200 rpm for 5 min, the supernatant was collected from the sample and subjected to analysis via an LC-MS/MS system. All experiments were performed in triplicate.
For the experimental method, the reference method was used. […] The HPLC mobile phases comprised (A) 0.1% formic acid and (B) 0.1% formic acid in 90% acetonitrile. […] The total run time was 11.0 min, and the injection volume was 5 µL. Mass detection was conducted in the positive ion mode using multiple reaction monitoring (MRM). Specific MRM transitions for each analyte are detailed in Table S4.

Series [4] concerns seven CYP isozymes (CYP1A2, CYP2A6, CYP2B6, CYP2C9, CYP2C19, CYP2D6, CYP3A4). Nature of the series: CYP inhibition assay in human liver microsomes, statements on all tested isozymes. In kind it is in vitro ADME. As for the experimental part: as §1
For the experimental method, the reference method was used. The LC-MS/MS system utilized in this study consisted of an Agilent 1260 binary pump HPLC system coupled with the Agilent 6460 Triple Quadrupole mass spectrometer (Agilent Technologies, Santa Clara, CA, USA), featuring an electrospray ionization source. Chromatographic separation was achieved using a Fortis C8 column (2.1 × 100 mm, 5.0 µm; Fortis Technologies Ltd., Neston, UK). The HPLC mobile phases comprised (A) 0.1% formic acid and (B) 0.1% formic acid in 90% acetonitrile. […]

Details of series [5]: method as in doi:10.4172/2155-9600.1000748, PMID 16168682, PMID 19912983. The following applies: cited from earlier work.
Another series concerns the target T3, CYP2D6 (Homo sapiens, UniProt P10635).
T3 construct: Pooled human liver microsomes were purchased from BD Gentest; tissue BD Gentest; host or cells: pooled human liver microsomes
Also on record: method as in PMID 34821124, PMID 29488228. Particulars: previous studies; cited from earlier work.

The conditions of series [6]: interaction case, co-administration of CS and GCS with warfarin; cited from earlier work.
The next series relates to CYP2C9. Also on record: method as in PMID 34821124, PMID 29488228. The following applies: previous studies; cited from earlier work.

Like-named read-outs stand apart in the source and are kept apart here.

T3 sequence (P10635 whole entry): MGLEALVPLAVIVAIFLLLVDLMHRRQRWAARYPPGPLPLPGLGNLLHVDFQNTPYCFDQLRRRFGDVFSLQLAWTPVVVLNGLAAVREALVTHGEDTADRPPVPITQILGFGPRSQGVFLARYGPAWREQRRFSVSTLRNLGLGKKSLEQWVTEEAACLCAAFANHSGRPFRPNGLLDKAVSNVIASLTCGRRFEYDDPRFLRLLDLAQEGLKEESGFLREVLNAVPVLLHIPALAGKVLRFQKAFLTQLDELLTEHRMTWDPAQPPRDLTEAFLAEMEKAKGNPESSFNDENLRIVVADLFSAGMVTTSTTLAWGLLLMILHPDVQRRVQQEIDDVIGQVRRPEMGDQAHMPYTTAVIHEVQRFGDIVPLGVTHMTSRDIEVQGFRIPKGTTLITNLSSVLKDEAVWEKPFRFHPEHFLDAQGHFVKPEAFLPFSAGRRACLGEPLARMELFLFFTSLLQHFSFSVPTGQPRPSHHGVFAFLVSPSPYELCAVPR

As to `CC(=O)Nc1ccc(O)cc1` [Acetaminophen], in the series with CYPs [1], the “Metabolism-Associated CYPs” value is on record as “CYP3A4 (major), CYP2El, CYP1A2, CYP2D6”.
On to `Cc1ccc(-c2cc(C(F)(F)F)nn2-c2ccc(S(N)(=O)=O)cc2)cc1` [Celecoxib], for which, in the series on CYPs [1], the “Metabolism-Associated CYPs” value is given as “CYP2C9 (major), CYP3A4”.
Turning to `O=C(O)Cc1ccccc1Nc1c(Cl)cccc1Cl` [Diclofenac], the “Metabolism-Associated CYPs” value in the series on CYPs [1] is on record as “CYP2C8, CYP2C9 (major), CYP2C18, CYP2C19, CYP2B6, CYP3A4”.
Turning to `CC(C)Cc1ccc(C(C)C(=O)O)cc1` (centres unmarked) [Ibuprofen], the “Metabolism-Associated CYPs” value in the series with CYPs [1] was “CYP2C8 (major) CYP2C9 (major), CYP2C19, CYP3A4”.
With `CS(C)(=O)=O` [MSM, methylsulfonylmethane], the “Remaining Activities (% of Control, n = 3)” value at CYP3A4(T) (test substance 0.3 μM) was 95.3 ± 2.9 % of Control; on CYP3A4(T) (test substance 1 μM) it was 98.5 ± 4.2 % of Control; at CYP3A4(T) (test substance 3 μM) it was 95.1 ± 3.5 % of Control; on CYP3A4(T) (test substance 10 μM), 98.0 ± 2.4 % of Control; at CYP3A4(T) (test substance 30 μM), 95.3 ± 1.7 % of Control; at CYP3A4(T) (test substance 100 μM), 90.8 ± 3.4 % of Control. Moreover, the “Remaining Activities (% of Control, n = 3)” value at CYP3A4(T) (test substance 300 μM) is 95.9 ± 4.2 % of Control; at CYP3A4(T) (test substance 1000 μM), 95.2 ± 0.5 % of Control; at CYP3A4(M) (test substance 0.3 μM) it was 93.2 ± 13.2 % of Control; on CYP3A4(M) (test substance 1 μM) it was 97.8 ± 4.3 % of Control; on CYP3A4(M) (test substance 3 μM), 96.2 ± 4.3 % of Control; at CYP3A4(M) (test substance 10 μM), 96.8 ± 4.2 % of Control. The “Remaining Activities (% of Control, n = 3)” value is given as 96.9 ± 7.2 % of Control at CYP3A4(M) (test substance 30 μM), 96.7 ± 6.2 % of Control on CYP3A4(M) (test substance 100 μM), 97.9 ± 4.4 % of Control on CYP3A4(M) (test substance 300 μM) and 99.7 ± 4.1 % of Control at CYP3A4(M) (test substance 1000 μM). For the same molecule, in the series on CYPs [2], the “inhibition or induction effects on CYPs (intrahepatic gene expressions)” value is reported as “no significant inhibition or induction effects”. Also, the “adverse effects in clinical trials” value in [3] is “do not exhibit significant adverse effects”. Also, the “inhibitory effects on CYP1A2, CYP2A6, CYP2B6, CYP2C9, CYP2C19, CYP2D6, and CYP3A4” value in series [4] is listed as “no inhibitory effects”. The maximum plasma concentrations in series [5] (common daily dose 2000 mg/day) is recorded as approximately 1100 µM.
`Cc1cnc(NC(=O)C2=C(O)c3ccccc3S(=O)(=O)N2C)s1` [Meloxicam]: the “Metabolism-Associated CYPs” value in the series on CYPs [1] was “CYP2C9 (major), CYP3A4”.
Consider `CCOC(=O)C1(c2ccccc2)CCN(C)CC1` [Pethidine], for which, in the series with CYPs [1], the “Metabolism-Associated CYPs” value is “CYP2B6 (major), CYP3A4 (major), CYP2C19”.
In the case of `COc1cccc(C2(O)CCCCC2CN(C)C)c1` (centres unmarked) [Tramadol], the “Metabolism-Associated CYPs” value with CYPs [1] is reported as “CYP2D6 (major), CYP3A4, CYP2B6”.
For Chondroitin sulfate [CS], the “adverse effects in clinical trials” value in [3] is “do not exhibit significant adverse effects”. Further, the “Remaining Activities (% of Control, n = 3)” value at CYP3A4(M) (test substance 0.1 μM) is recorded as 97.6 ± 3.8 % of Control; on CYP3A4(M) (test substance 0.3 μM) it was 99.1 ± 3.1 % of Control; on CYP3A4(M) (test substance 1 μM) it was 91.2 ± 10.6 % of Control; at CYP3A4(M) (test substance 3 μM), 87.9 ± 27.9 % of Control; at CYP3A4(M) (test substance 10 μM) it was 101.4 ± 4.9 % of Control; at CYP3A4(M) (test substance 30 μM) it was 106.6 ± 5 % of Control. The results for the “Remaining Activities (% of Control, n = 3)” value at CYP3A4(M) (test substance 100 μM) and on CYP3A4(M) (test substance 200 μM) were 113.6 ± 8.4 % of Control and 114.6 ± 2.8 % of Control, respectively. The “inhibitory effects on CYP2D6” value at CYP2D6 is reported as “no inhibitory effects”. The “INR on co-administration with warfarin” value in series [6] was “elevated INR”. Moreover, the “inhibitory effects on CYP2C9” value with CYP2C9 is “no inhibitory effects”. Besides, the “inhibitory effects on CYP1A2, CYP2A6, CYP2B6, CYP2C9, CYP2C19, CYP2D6, and CYP3A4” value in [4] is reported as “no inhibitory effects”. In addition, the maximum plasma concentrations entry in series [5] (common daily dose 1200 mg/day) is recorded as “approximately 70 µM”.
